# Measured values reported in US20260274892A1, “MACROCYCLIC BROAD SPECTRUM ANTIBIOTICS” (RQx Pharmaceuticals, Inc., priority 2017, published 2026).
# Like-named read-outs stand apart in the source and are kept apart here.
# Experiments:
# [1] = cc_pd bond, Pd(dppf)Cl2·CH2Cl2, acetonitrile
# [2] = system: Methicillin Resistant Staphylococcus aureus strain USA 200; test: Minimum inhibitory concentration (MIC), CLSI broth micro-dilution, S. aureus; assay type: cell-based; conditions: Staphylococcus aureus, MRSA / USA200; Table 6; MRSA USA 200; cation adjusted Mueller Hinton Broth + 0.002% Tween-80; 35° C., 22 hours
# Method in brief: (§1)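 Colonies grown 20 h at 35° C on Trypticase Soy agar (MRSA) or Luria agar (E. coli) were suspended in cation-adjusted Mueller Hinton broth with 0.002% Tween-80. Suspensions were added at OD600 0.0005 to 10-point twofold compound dilutions, then incubated 22 h at 35° C.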
# [3] = system: Escherichia coli ATCC 25922; test: Minimum inhibitory concentration (MIC), CLSI broth micro-dilution, E. coli; assay type: cell-based; conditions: Escherichia coli, ATCC25922, 22 h, Table 6, cation adjusted Mueller Hinton Broth + 0.002% Tween-80, 35° C.
# Method in brief: as §1
MIC [2] [µM],MIC [3] [µM],SMILES,"ring closure, yield of all isomers ([1]; from COC(=O)[C@H](Cc1cc(F)c(OCc2ccccc2)c(B2OC(C)(C)C(C)(C)O2)c1)NC(=O)[C@H](C)NC(=O)[C@H](c1ccc(OCCNC(=O)OC(C)(C)C)c(I)c1)N(C)C(=O)OCc1ccccc1, 20.06 mM, 70.0 °C, 1.5 h) [%]","ring closure, yield of all isomers ([1]; from COC(=O)[C@H](Cc1cc(O)c(OC)c(B2OC(C)(C)C(C)(C)O2)c1)NC(=O)[C@H](C)NC(=O)[C@H](c1ccc(OC)c(I)c1)N(C)C(=O)OC(C)(C)C, 65.0 °C, 2.0 h) [%]"
0.063,1,"Cc1nc(-c2ccc(OC3CCCCC3)cc2)nc(C)c1C(=O)N[C@@H](CCCNC(N)=O)C(=O)N(C)[C@@H]1C(=O)N[C@@H](C)C(=O)N[C@H](C(=O)NCC#N)Cc2ccc(OCCN)c(c2)-c2cc1ccc2OCCN [Compound 501, (8S,11S,14S)-3,18-bis(2-aminoethoxy)-N-(cyanomethyl)-14-[[(2S)-2-[[2-[4-(cyclohexoxy)phenyl]-4,6-dimethyl-pyrimidine-5-carbonyl]amino]-5-ureido-pentanoyl]-methyl-amino]-11-methyl-10,13-dioxo-9,12-diazatricyclo[13.3.1.12,6]icosa-1(18),2(20),3,5,15(19),16-hexaene-8-carboxamide]",–,–
0.047,1,"Cc1nc(-c2ccc(OC3CCCCC3)cc2)nc(C)c1C(=O)N[C@@H](CCCNS(N)(=O)=O)C(=O)N(C)[C@@H]1C(=O)N[C@@H](C)C(=O)N[C@H](C(=O)NCC#N)Cc2ccc(OCCN)c(c2)-c2cc1ccc2OCCN [Compound 503, (8S,11S,14S)-3,18-bis(2-aminoethoxy)-N-(cyanomethyl)-14-[[(2S)-2-[[2-[4-(cyclohexoxy)phenyl]-4,6-dimethyl-pyrimidine-5-carbonyl]amino]-5-(sulfamoylamino)pentanoyl]-methyl-amino]-11-methyl-10,13-dioxo-9,12-diazatricyclo[13.3.1.12,6]icosa-1(18),2(20),3,5,15(19),16-hexaene-8-carboxamide]",–,–
0.063,0.38,"Cc1nc(-c2ccc(OC3CCCCC3)cc2)nc(C)c1C(=O)N[C@@H](CO)C(=O)N(C)[C@@H]1C(=O)N[C@@H](C)C(=O)N[C@H](C(=O)NCC#N)Cc2ccc(OCCN)c(c2)-c2cc1ccc2OCCN [Compound 507, (8S,11S,14S)-3,18-bis(2-aminoethoxy)-N-(cyanomethyl)-14-[[(2S)-2-[[2-[4-(cyclohexoxy)phenyl]-4,6-dimethyl-pyrimidine-5-carbonyl]amino]-3-hydroxy-propanoyl]-methyl-amino]-11-methyl-10,13-dioxo-9,12-diazatricyclo[13.3.1.12,6]icosa-1(18),2(20),3,5,15(19),16-hexaene-8-carboxamide]",–,–
1,6,"Cc1nc(-c2ccc(OC3CCCCC3)cc2)nc(C)c1C(=O)N[C@H](CO)C(=O)N(C)[C@@H]1C(=O)N[C@@H](C)C(=O)N[C@H](C(=O)NCC#N)Cc2ccc(OCCN)c(c2)-c2cc1ccc2OCCN [Compound 508, (8S,11S,14S)-3,18-bis(2-aminoethoxy)-N-(cyanomethyl)-14-[[(2R)-2-[[2-[4-(cyclohexoxy)phenyl]-4,6-dimethyl-pyrimidine-5-carbonyl]amino]-3-hydroxy-propanoyl]-methyl-amino]-11-methyl-10,13-dioxo-9,12-diazatricyclo[13.3.1.12,6]icosa-1(18),2(20),3,5,15(19),16-hexaene-8-carboxamide]",–,–
0.047,0.5,"Cc1nc(-c2ccc(OC3CCCCC3)cc2)nc(C)c1C(=O)N[C@@H](CCO)C(=O)N(C)[C@@H]1C(=O)N[C@@H](C)C(=O)N[C@H](C(=O)NCC#N)Cc2ccc(OCCN)c(c2)-c2cc1ccc2OCCN [Compound 509, (8S,11S,14S)-3,18-bis(2-aminoethoxy)-N-(cyanomethyl)-14-[[(2S)-2-[[2-[4-(cyclohexoxy)phenyl]-4,6-dimethyl-pyrimidine-5-carbonyl]amino]-4-hydroxy-butanoyl]-methyl-amino]-11-methyl-10,13-dioxo-9,12-diazatricyclo[13.3.1.12,6]icosa-1(18),2(20),3,5,15(19),16-hexaene-8-carboxamide]",–,–

# Continued, compound first:
SMILES,MIC [2] [µM],MIC [3] [µM],"ring closure, yield of all isomers ([1]; from COC(=O)[C@H](Cc1cc(F)c(OCc2ccccc2)c(B2OC(C)(C)C(C)(C)O2)c1)NC(=O)[C@H](C)NC(=O)[C@H](c1ccc(OCCNC(=O)OC(C)(C)C)c(I)c1)N(C)C(=O)OCc1ccccc1, 20.06 mM, 70.0 °C, 1.5 h) [%]","ring closure, yield of all isomers ([1]; from COC(=O)[C@H](Cc1cc(O)c(OC)c(B2OC(C)(C)C(C)(C)O2)c1)NC(=O)[C@H](C)NC(=O)[C@H](c1ccc(OC)c(I)c1)N(C)C(=O)OC(C)(C)C, 65.0 °C, 2.0 h) [%]"
COC(=O)[C@@H]1Cc2cc(F)c(OCc3ccccc3)c(c2)-c2cc(ccc2OCCNC(=O)OC(C)(C)C)[C@H](N(C)C(=O)OCc2ccccc2)C(=O)N[C@@H](C)C(=O)N1,–,–,31,–
COC(=O)[C@@H]1Cc2cc(O)c(OC)c(c2)-c2cc(ccc2OC)[C@H](N(C)C(=O)OC(C)(C)C)C(=O)N[C@@H](C)C(=O)N1,–,–,–,17.1
"Cc1nc(-c2ccc(C(C)(C)C)cc2)nc(C)c1C(=O)N[C@@H](CC(C)(C)N)C(=O)N(C)[C@@H]1C(=O)N[C@@H](C)C(=O)N[C@H](C(=O)NCC#N)Cc2ccc(OCCN)c(c2)-c2cc1ccc2OCCN [Compound 492, (8S,11S,14S)-14-[[(2S)-4-amino-2-[[2-(4-tert-butylphenyl)-4,6-dimethyl-pyrimidine-5-carbonyl]amino]-4-methyl-pentanoyl]-methyl-amino]-3,18-bis(2-aminoethoxy)-N-(cyanomethyl)-11-methyl-10,13-dioxo-9,12-diazatricyclo[13.3.1.12,6]icosa-1(18),2(20),3,5,15(19),16-hexaene-8-carboxamide]",0.016,2,–,–
"Cc1nc(-c2ccc(OC3CCCCC3)cc2)nc(C)c1C(=O)N[C@@H](CCNS(C)(=O)=O)C(=O)N(C)[C@@H]1C(=O)N[C@@H](C)C(=O)N[C@H](C(=O)NCC#N)Cc2ccc(OCCN)c(c2)-c2cc1ccc2OCCN [Compound 497, (8S,11S,14S)-3,18-bis(2-aminoethoxy)-N-(cyanomethyl)-14-[[(2S)-2-[[2-[4-(cyclohexoxy)phenyl]-4,6-dimethyl-pyrimidine-5-carbonyl]amino]-4-(methanesulfonamido)butanoyl]-methyl-amino]-11-methyl-10,13-dioxo-9,12-diazatricyclo[13.3.1.12,6]icosa-1(18),2(20),3,5,15(19),16-hexaene-8-carboxamide]",0.047,0.75,–,–
"Cc1nc(-c2ccc(OC3CCCCC3)cc2)nc(C)c1C(=O)N[C@@H](CCNC(N)=O)C(=O)N(C)[C@@H]1C(=O)N[C@@H](C)C(=O)N[C@H](C(=O)NCC#N)Cc2ccc(OCCN)c(c2)-c2cc1ccc2OCCN [Compound 498, (8S,11S,14S)-3,18-bis(2-aminoethoxy)-N-(cyanomethyl)-14-[[(2S)-2-[[2-[4-(cyclohexoxy)phenyl]-4,6-dimethyl-pyrimidine-5-carbonyl]amino]-4-ureido-butanoyl]-methyl-amino]-11-methyl-10,13-dioxo-9,12-diazatricyclo[13.3.1.12,6]icosa-1(18),2(20),3,5,15(19),16-hexaene-8-carboxamide]",0.063,1,–,–
"Cc1nc(-c2ccc(OC3CCCCC3)cc2)nc(C)c1C(=O)N[C@@H](CNC(N)=O)C(=O)N(C)[C@@H]1C(=O)N[C@@H](C)C(=O)N[C@H](C(=O)NCC#N)Cc2ccc(OCCN)c(c2)-c2cc1ccc2OCCN [Compound 499, (8S,11S,14S)-3,18-bis(2-aminoethoxy)-N-(cyanomethyl)-14-[[(2S)-2-[[2-[4-(cyclohexoxy)phenyl]-4,6-dimethyl-pyrimidine-5-carbonyl]amino]-3-ureido-propanoyl]-methyl-amino]-11-methyl-10,13-dioxo-9,12-diazatricyclo[13.3.1.12,6]icosa-1(18),2(20),3,5,15(19),16-hexaene-8-carboxamide]",0.063,1.5,–,–
"Cc1nc(-c2ccc(OC3CCCCC3)cc2)nc(C)c1C(=O)N[C@@H](CCNS(N)(=O)=O)C(=O)N(C)[C@@H]1C(=O)N[C@@H](C)C(=O)N[C@H](C(=O)NCC#N)Cc2ccc(OCCN)c(c2)-c2cc1ccc2OCCN [Compound 500, (8S,11S,14S)-3,18-bis(2-aminoethoxy)-N-(cyanomethyl)-14-[[(2S)-2-[[2-[4-(cyclohexoxy)phenyl]-4,6-dimethyl-pyrimidine-5-carbonyl]amino]-4-(sulfamoylamino)butanoyl]-methyl-amino]-11-methyl-10,13-dioxo-9,12-diazatricyclo[13.3.1.12,6]icosa-1(18),2(20),3,5,15(19),16-hexaene-8-carboxamide]",0.031,0.48,–,–
